{
  "source": "patent US20060148858A1",
  "about": "“1, 2-Azole derivatives with hypoglycemic and hypolipidemic activity” (priority 2002, published 2006)",
  "key": {"KKAY mice [1]": {"system": "KKAY mice", "assay": "Hypoglycemic and hypolipidemic actions in mice (Test Example 1)", "format": "in vivo", "details": "Mus musculus, po, 96 h, 0.005% in powdery diet, four days, non-treated group taken as 100%", "method_in_brief": "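KKAY mice (9 to 12 weeks old, 5 per group) were fed diet containing 0.005% test compound ad libitum for four days. Plasma glucose and triglycerides from orbital venous blood were measured enzymatically, reported as % decrease relative to untreated group (100%).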"}, "KKAY mice [2]": {"system": "KKAY mice", "assay": "Plasma anti-arteriosclerosis index-enhancing action in mice (Test Example 2)", "format": "in vivo", "details": "Mus musculus, po, 96 h, 0.005% in powdery diet, four days, percent increase of (HDL cholesterol/total cholesterol)x100, non-treatment group taken as 100%", "experimental": "Test compounds were mixed in a powdery diet (CE-2, Japan Clea) at the concentration of 0.005%, and freely given to KKAY mice (9 to 12 weeks old, 5 mice per group), a model of obese and non-insulin dependent diabetes (type 2 diabetes), for four days. During this period, water was given freely. Blood was sampled from orbital venous plexus and components in plasma separated from blood were determined. Total cholesterol levels were determined by using L type Wako Cholesterol (Wako Pure Chemical Industries, Ltd.). Precipitation reagent for HDL cholesterol (Wako Pure Chemical Industries, Ltd.) was added to a part of the plasma to precipitate non-HDL lipoprotein, and cholesterol (HDL cholesterol) in the resulting supernatant was determined. The plasma anti-arteriosclerosis index [(HDL cholesterol/total cholesterol)×100] was calculated by using these cholesterol levels.\nIn the Table, “Plasma anti-arteriosclerosis index-enhancing action (%)” represents the percent increase (%) of plasma anti-arteriosclerosis index in the treatment group, when the plasma anti-arteriosclerosis index in the non-treatment group is taken as 100%."}, "PPARγ-RXRα heterodimer": {"biological_target": "T1, PPARγ-RXRα heterodimer (Homo sapiens, UniProt P37231)", "T1 construct": "expressed in transfected cells; host or cells: CHO-K1", "T1 sequence (P37231 1-477 isoform P37231-2)": "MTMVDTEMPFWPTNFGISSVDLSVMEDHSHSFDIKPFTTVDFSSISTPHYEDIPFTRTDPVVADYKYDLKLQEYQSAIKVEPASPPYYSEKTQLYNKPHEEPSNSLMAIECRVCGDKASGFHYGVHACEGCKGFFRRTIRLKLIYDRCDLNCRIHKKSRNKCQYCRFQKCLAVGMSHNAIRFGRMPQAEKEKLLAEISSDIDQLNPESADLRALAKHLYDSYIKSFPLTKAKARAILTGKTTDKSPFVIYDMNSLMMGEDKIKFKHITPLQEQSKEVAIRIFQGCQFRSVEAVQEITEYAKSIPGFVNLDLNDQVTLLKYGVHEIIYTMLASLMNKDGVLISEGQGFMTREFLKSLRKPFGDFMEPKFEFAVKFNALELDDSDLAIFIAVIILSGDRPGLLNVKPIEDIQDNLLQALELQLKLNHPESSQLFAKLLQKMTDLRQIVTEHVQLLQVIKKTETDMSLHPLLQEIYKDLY", "T1 sequence (P19793 1-462 partner)": "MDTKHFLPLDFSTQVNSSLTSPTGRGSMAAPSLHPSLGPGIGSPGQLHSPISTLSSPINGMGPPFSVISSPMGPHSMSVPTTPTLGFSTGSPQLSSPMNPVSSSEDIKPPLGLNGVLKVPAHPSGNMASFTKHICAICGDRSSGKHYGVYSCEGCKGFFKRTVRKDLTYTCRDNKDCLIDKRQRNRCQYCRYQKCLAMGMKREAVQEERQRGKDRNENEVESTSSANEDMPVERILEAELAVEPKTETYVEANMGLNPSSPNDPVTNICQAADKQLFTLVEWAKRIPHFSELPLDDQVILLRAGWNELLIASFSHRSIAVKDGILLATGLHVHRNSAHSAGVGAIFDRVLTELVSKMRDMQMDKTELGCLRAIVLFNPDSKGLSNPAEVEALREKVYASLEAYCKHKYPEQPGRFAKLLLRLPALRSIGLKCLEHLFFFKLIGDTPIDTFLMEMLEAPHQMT", "assay": "PPARγ-RXRα heterodimer ligand activity, luciferase reporter in PPARγ:RXRα:4ERPP/CHO-K1 cells (Test Example 3)", "format": "cell-based", "details": "18-48 hours, concentration for 50% of the maximum fold induction", "method_in_brief": "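Stable CHO-K1 line co-expressing hPPARγ/RXR with 4ERPP-TK luciferase reporter, 2×10^4 cells per well, treated 18-48 h at 37° C. in HAM F12 with 0.1% fatty acid-free BSA. Luciferase fold induction versus untreated taken as 1; EC50 is concentration giving 50% of maximal fold induction.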"}},
  "note": "Where two headings read alike, the source gives them in different places.",
  "data": [
    {"smiles": "Cc1cccc(CC(=O)O)c1OCCCc1cn(-c2ccc(C(F)(F)F)cn2)nc1C(C)C", "note": "[Example 315, [2-(3-{3-isopropyl-1-[5-(trifluoromethyl)-2-pyridinyl]-1H-pyrazol-4-yl}propoxy)-3-methylphenyl]acetic acid]", "values": [
      {"measurement": "inhibition in vivo at 0.005 % in diet", "setting": "KKAY mice [1]; rate of decrease in blood glucose level, read-out: Hypoglycemic action (%)", "value": 53, "unit": "%"},
      {"measurement": "inhibition in vivo at 0.005 % in diet", "setting": "KKAY mice [1]; rate of decrease in blood triglyceride level, read-out: Hypolipidemic action (%)", "value": 70, "unit": "%"},
      {"measurement": "change in vivo at 0.005 % in diet", "setting": "KKAY mice [2]", "value": 11, "unit": "%"},
      {"measurement": "melting point", "value": "159 to 160", "unit": "°C"},
      {"measurement": "EC50", "setting": "PPARγ-RXRα heterodimer", "value": 35, "unit": "nM"}
    ]}
  ]
}
